Consider 20 molecules from US8796259B2, “N3-heteroaryl substituted triazoles and N5-heteroaryl substituted triazoles useful as axl inhibitors” (Rigel Pharmaceuticals, Inc., priority 2006, dated 2014).

For the experiment, the target named is T1, Axl (Homo sapiens, UniProt P30530).
T1 construct: endogenous in cells; host or cells: HeLa cells
T1 sequence (P30530 26-894): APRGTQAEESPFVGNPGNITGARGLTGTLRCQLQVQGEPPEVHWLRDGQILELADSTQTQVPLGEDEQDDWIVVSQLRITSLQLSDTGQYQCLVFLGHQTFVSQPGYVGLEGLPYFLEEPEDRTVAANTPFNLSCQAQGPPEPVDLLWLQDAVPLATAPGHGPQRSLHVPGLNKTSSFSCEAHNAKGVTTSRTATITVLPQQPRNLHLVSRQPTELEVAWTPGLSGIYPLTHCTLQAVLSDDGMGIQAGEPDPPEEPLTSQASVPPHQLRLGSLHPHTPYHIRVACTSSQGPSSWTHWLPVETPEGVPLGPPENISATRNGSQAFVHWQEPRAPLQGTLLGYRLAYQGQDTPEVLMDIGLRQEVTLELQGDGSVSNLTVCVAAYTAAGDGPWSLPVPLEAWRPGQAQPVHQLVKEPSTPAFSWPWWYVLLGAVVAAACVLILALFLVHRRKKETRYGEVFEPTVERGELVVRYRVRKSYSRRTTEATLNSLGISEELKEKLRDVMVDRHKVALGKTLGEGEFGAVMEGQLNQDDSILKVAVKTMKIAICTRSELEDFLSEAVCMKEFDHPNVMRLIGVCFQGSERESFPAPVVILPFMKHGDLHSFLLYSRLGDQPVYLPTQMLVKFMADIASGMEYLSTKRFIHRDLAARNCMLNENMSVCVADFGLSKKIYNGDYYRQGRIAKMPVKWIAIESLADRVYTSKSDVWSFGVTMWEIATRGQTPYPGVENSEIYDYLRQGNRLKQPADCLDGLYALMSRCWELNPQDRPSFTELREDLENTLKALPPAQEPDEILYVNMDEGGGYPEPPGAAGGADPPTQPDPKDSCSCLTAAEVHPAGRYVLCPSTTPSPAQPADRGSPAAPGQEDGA
Briefly: Phospho-Akt in-cell Western assay (inhibition of Axl activity, Axl-antibody cross-linking stimulation). The class given is cell-based. Particulars: Hela cells, phospho-Akt readout; compounds of formula (Ia), Table 1. The method in brief: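 HeLa cells on poly-L-lysine were starved 24 h in 0.5% FCS/DMEM with 500 ng/mL Axl/Fc, pre-treated with compound 1 h at 37 °C, then stimulated 5 min by cross-linked mouse anti-Axl/biotin anti-mouse antibody clusters. After formaldehyde fixation, phospho-Akt was detected by rabbit anti-phospho-Akt and HRP secondary with chemiluminescence read-out.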

SMILES strings stand for the structures. Bounds are passed on as bounds.

The IC50 is the concentration that inhibits the measured activity by half. High values mean lower potency, low ones higher potency. Molecule `Cc1csc2c(-n3nc(Nc4cnc5c(c4)CC4(CC5)OCCO4)nc3N)nc(Cl)nc12` [compound 60, 1-(2-chloro-7-methylthieno [3,2-d]pyrimidin-4-yl)-N^3-(7′,8′-dihydro-5′H-spiro[[1,3]dioxolane-2,6′-quinoline]-3′-yl)-1H-1,2,4-triazole-3,5-diamine] displayed an IC50 of under 1000 nM.
The same measure for `Cc1csc2c(-n3nc(Nc4cnc5c(c4)CN(C(=O)C4CCN(C)CC4)CC5)nc3N)nc(Cl)nc12` [compound 61, 1-(2-chloro-7-methylthieno [3,2-d]pyrimidin-4-yl)-N^3-(6-(1-methyl-piperidin-4-ylcarbonyl)-5,6,7,8-tetrahydro-1,6-naphthyridin-3-yl)-1H-1,2,4-triazole-3,5-diamine]: under 1000 nM.
The same measure for `COc1cc2ncnc(-n3nc(Nc4cnc(N5CCC(N6CCCC6)CC5)nc4)nc3N)c2cc1OC` [compound 62, 1-(6,7-dimethoxy-quinazoline-4-yl)-N^3-(2-(4-pyrrolidin-1-ylpiperidin-1-yl)pyrimidin-5-yl)-1H-1,2,4-triazole-3,5-diamine]: over 20000 nM.
In turn, `COc1cc2ncnc(-n3nc(Nc4cnc(N5CCC(CN6CCCCC6)CC5)nc4)nc3N)c2cc1OC` [compound 63, 1-(6,7-dimethoxy-quinazoline-4-yl)-N^3-(2-(4-piperidin-1-ylmethyl-piperidin-1-yl)pyrimidin-5-yl)-1H-1,2,4-triazole-3,5-diamine] had an IC50 of 1000 to 10000 nM.
For the molecule `Cc1csc2c(-n3nc(Nc4cnc5c(c4)C4CC(N6CCCC6)CC4C5)nc3N)nc(Cl)nc12` (centres unmarked) [compound 64, 1-(2-chloro-7-methylthieno [3,2-d]pyrimidin-4-yl)-N^3-(6-(pyrrolidin-1-yl)-4b,5,6,7,7a,8-hexahydro-pentaleno[2,1-b]pyridin-3-yl)-1H-1,2,4-triazole-3,5-diamine], the IC50 was under 1000 nM.
With `COc1cc2ncnc(-n3nc(Nc4ccc(C=CCN5CCC(N6CCN(C)CC6)CC5)nc4)nc3N)c2cc1OC` [compound 65, 1-(6,7-dimethoxy-quinazoline-4-yl)-N^3-(6-(3-(4-(4-methyl-piperazin-1-yl)piperidin-1-yl)propenyl)pyridin-3-yl)-1H-1,2,4-triazole-3,5-diamine], the IC50 was under 1000 nM.
Molecule `Cc1csc2c(-n3nc(Nc4cnc5c(c4)CC(N4CCN(C)CC4)CC5)nc3N)nc(Cl)nc12` (centres unmarked) [compound 66, 1-(2-chloro-7-methylthieno [3,2-d]pyrimidin-4-yl)-N^3-(6-(4-methyl-piperazin-1-yl)-5,6,7,8-tetrahydro-quinolin-3-yl)-1H-1,2,4-triazole-3,5-diamine] came in with an IC50 of under 1000 nM.
For `COc1cc2ncnc(-n3nc(Nc4ccc(C=CCN5CCC(N6CCCCC6)CC5)nc4)nc3N)c2cc1OC` [compound 67, 1-(6,7-dimethoxy-quinazoline-4-yl)-N^3-(6-(3-(4-piperidin-1-ylpiperidin-1-yl)propenyl)pyridin-3-yl)-1H-1,2,4-triazole-3,5-diamine] the value was under 1000 nM; for `Cc1csc2c(-n3nc(Nc4ccc(N5CCN(C6CC6)CC5)nc4)nc3N)nc(Cl)nc12` [compound 68, 1-(2-chloro-7-methylthieno [3,2-d]pyrimidin-4-yl)-N^3-(6-(4-cyclopropyl-piperazin-1-yl)pyridin-3-yl)-1H-1,2,4-triazole-3,5-diamine], under 1000 nM.
`COc1cc2ncnc(-n3nc(Nc4ccc(C=CCN5CCC(N(C)C)CC5)nc4)nc3N)c2cc1OC` [compound 69, 1-(6,7-dimethoxy-quinazoline-4-yl)-N^3-(6-(3-(4-dimethyl-amino-piperidin-1-yl)propenyl)pyridin-3-yl)-1H-1,2,4-triazole-3,5-diamine] showed an IC50 of under 1000 nM.
For `Cc1csc2c(-n3nc(Nc4cnc5c(c4)CC(NC4CCCC4)CC5)nc3N)nc(Cl)nc12` (centres unmarked) [compound 70, 1-(2-chloro-7-methylthieno [3,2-d]pyrimidin-4-yl)-N^3-(6-cyclopentyl-amino-5,6,7,8-tetrahydro-quinolin-3-yl)-1H-1,2,4-triazole-3,5-diamine], the half-maximal inhibitory concentration (IC50) is under 1000 nM.
In turn, `Cc1cc(Nc2nc(N)n(-c3nc(Cl)nc4c(C)csc34)n2)cnc1N1CCN(C2CC3CCC2C3)CC1` (centres unmarked) [compound 71, 1-(2-chloro-7-methylthienò [3,2-d]pyrimidine-4-yl)-N^3-(5-methyl-6-(4-bicyclo[2.2.1]heptan-2-ylpiperazin-1-yl)pyridine-3-yl)-1H-1,2,4-triazole-3,5-diamine] returned a concentration for half-maximal inhibition (IC50) of under 1000 nM.
For `Cc1cc(Nc2nc(N)n(-c3ncnc4c(C)csc34)n2)cnc1N1CCN(C2CC3CCC2C3)CC1` (centres unmarked) [compound 72, 1-(7-methylthieno [3,2-d]pyrimidine-4-yl)-N^3-(5-methyl-6-(4-bicyclo [2.2.1]heptan-2-ylpiperazin-1-yl)pyridine-3-yl)-1H-1,2,4-triazole-3,5-diamine] the value was under 1000 nM; for `Cc1csc2c(-n3nc(Nc4ccc(N5CCN([C@H]6C[C@@H]7CC[C@H]6C7)CC5)nc4)nc3N)ncnc12` [compound 73, 1-(7-methylthieno [3,2-d]pyrimidine-4-yl)-N^3-(6-(4-((1S,2S,4R)-bicyclo[2.2.1]heptan-2-yl)piperazin-1-yl)pyridin-3-yl)-1H-1,2,4-triazole-3,5-diamine], under 1000 nM; for `Cc1csc2c(-n3nc(Nc4cnc5c(c4)CCC(N4CCCC4)CC5)nc3N)nc(Cl)nc12` (centres unmarked) [compound 77, 1-(2-chloro-7-methylthieno [3,2-d]pyrimidine-4-yl)-N^3-(7-(pyrrolidin-1-yl)-6,7,8,9-tetrahydro-5H-cyclohepta[b]pyridin-3-yl)-1H-1,2,4-triazole-3,5-diamine], under 1000 nM.
The same measure for `CCN(CC)C1CCN(CC=Cc2ccc(Nc3nc(N)n(-c4ncnc5cc(OC)c(OC)cc45)n3)cn2)C1` (centres unmarked) [compound 78, 1-(6,7-dimethoxy-quinazoline-4-yl)-N^3-(6-(3-(3-(diethylamino)pyrrolidin-1-yl)propenyl)pyridin-3-yl)-1H-1,2,4-triazole-3,5-diamine]: under 1000 nM; for `COc1cc2ncnc(-n3nc(Nc4ccc(C=CCN5CCC(N(C)C)C5)nc4)nc3N)c2cc1OC` (centres unmarked) [compound 79, 1-(6,7-dimethoxy-quinazoline-4-yl)-N^3-(6-(3-(3-(dimethyl-amino)pyrrolidin-1-yl)propenyl)pyridin-3-yl)-1H-1,2,4-triazole-3,5-diamine]: under 1000 nM.
Take `COc1cc2ncnc(-n3nc(Nc4ccc(C=CCN5CCCCC5)nc4)nc3N)c2cc1OC` [compound 80]: the IC50 was under 1000 nM.
`COc1cc2ncnc(-n3nc(Nc4ccc(C=CCN5CCC(N6CCCC6)CC5)nc4)nc3N)c2cc1OC` [compound 81, 1-(6,7-dimethoxy-quinazoline-4-yl)-N^3-(6-(3-(4-pyrrolidin-1-ylpiperidin-1-yl)propenyl)pyridin-3-yl)-1H-1,2,4-triazole-3,5-diamine] displayed an IC50 of under 1000 nM.
Consider `Cc1csc2c(-n3nc(Nc4cnc5c(c4)CC(N4CCCC4)CC5)nc3N)nc(Cl)nc12` (centres unmarked) [compound 82, 1-(2-chloro-7-methylthieno [3,2-d]pyrimidin-4-yl)-N^3-(6-pyrrolidin-1-yl-5,6,7,8-tetrahydro-quinolin-3-yl)-1H-1,2,4-triazole-3,5-diamine], for which the IC50 was under 1000 nM.
